For experiment [1], the system named is Eimeria acervulina. The experiment is described as follows: Anticoccidial activity against Eimeria acervulina at 100 ppm. Format: functional.
Experiment [2] has as its target cGMP-dependent protein kinase (Eimeria tenella, UniProt Q8MMZ8). The experiment in a line: Inhibition of Eimeria tenella PKG.
Experiment [3] deals with Eimeria tenella. The experiment in a line: Anticoccidial activity against Eimeria tenella at 100 ppm. The format is functional.

20 compounds from ChEMBL document CHEMBL1147009, “Synthesis and SAR studies of diarylpyrrole anticoccidial agents” (Bioorg Med Chem Lett, 2006) can be followed below.

pIC50: −log10 of the molar value. Where only a bound is given, the exact number is not on record here.

Chain of cGMP-dependent protein kinase (Q8MMZ8 whole entry): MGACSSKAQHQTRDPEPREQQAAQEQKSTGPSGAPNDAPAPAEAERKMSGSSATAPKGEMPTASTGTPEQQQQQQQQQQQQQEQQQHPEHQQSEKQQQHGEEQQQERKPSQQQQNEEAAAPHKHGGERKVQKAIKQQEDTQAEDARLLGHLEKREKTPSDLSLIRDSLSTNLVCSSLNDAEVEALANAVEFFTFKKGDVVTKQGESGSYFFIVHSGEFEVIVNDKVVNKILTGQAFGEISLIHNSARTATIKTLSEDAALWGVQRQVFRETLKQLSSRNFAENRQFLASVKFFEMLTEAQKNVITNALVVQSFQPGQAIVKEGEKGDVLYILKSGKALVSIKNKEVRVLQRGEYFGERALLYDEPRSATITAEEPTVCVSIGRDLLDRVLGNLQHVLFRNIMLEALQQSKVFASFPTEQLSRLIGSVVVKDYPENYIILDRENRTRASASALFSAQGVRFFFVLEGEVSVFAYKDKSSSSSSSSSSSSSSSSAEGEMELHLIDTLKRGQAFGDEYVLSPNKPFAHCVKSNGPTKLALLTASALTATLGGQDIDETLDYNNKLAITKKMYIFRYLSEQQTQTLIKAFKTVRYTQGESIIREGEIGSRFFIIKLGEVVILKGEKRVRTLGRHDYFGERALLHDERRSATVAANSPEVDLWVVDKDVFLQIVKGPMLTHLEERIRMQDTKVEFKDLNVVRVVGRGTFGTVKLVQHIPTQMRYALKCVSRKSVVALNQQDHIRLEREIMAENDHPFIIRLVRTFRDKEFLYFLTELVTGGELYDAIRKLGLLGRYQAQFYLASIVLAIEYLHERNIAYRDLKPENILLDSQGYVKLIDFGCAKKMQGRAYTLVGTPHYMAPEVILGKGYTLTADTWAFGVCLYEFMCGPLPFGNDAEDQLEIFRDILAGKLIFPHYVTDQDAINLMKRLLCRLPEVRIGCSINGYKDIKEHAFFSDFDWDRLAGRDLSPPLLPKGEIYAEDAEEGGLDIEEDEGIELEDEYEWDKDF

As a reminder, the pIC50 is the negative decadic logarithm of the IC50, by convention in mol/L. With `CCOC(=O)c1cc(-c2ccncc2)c(-c2ccc(F)cc2)[nH]1`, the Activity in experiment [1] and in experiment [3] was under 50% in each case. In experiment [2], this compound had a pIC50 of 6.37.

With `OCCN1CCCC1c1cc(-c2ccncc2)c(-c2ccc(F)cc2)[nH]1` (centres undefined), the Activity in experiment [1] and in experiment [3] was under 50% throughout. Moreover, the pIC50 in experiment [2] was 8.68.

For `OCC1CCN(Cc2cc(-c3ccncc3)c(-c3ccc(F)cc3)[nH]2)CC1`, the Activity in experiment [1] and in experiment [3] was under 50% throughout. Further, the pIC50 in experiment [2] was 7.89.

Consider `CNC(=O)N1CCCC1c1cc(-c2ccncc2)c(-c2ccc(F)cc2)[nH]1` (centres undefined), for which the Activity in experiment [1] and in experiment [3] was under 50% throughout. Also, in experiment [2], the pIC50 is 8.64.

Turning to `CN1CCCCC1c1cc(-c2ccncc2)c(-c2ccc(F)cc2)[nH]1` (centres undefined), the Activity in experiment [1] and in experiment [3] was under 50% in each case. Further, in experiment [2], the negative-log IC50 (pIC50) was 8.57.

As for `O=C(O)Cc1cc(-c2ccncc2)c(-c2ccc(F)cc2)[nH]1`, the Activity in experiment [1] and in experiment [3] was under 50% each time. The same compound had a pIC50 in experiment [2] of under 6.00.

For the compound `CN(C)C(=O)Cc1cc(-c2ccncc2)c(-c2ccc(F)cc2)[nH]1`, the Activity in experiment [1] and in experiment [3] was under 50% throughout. Besides, the pIC50 in experiment [2] is 8.39.

Regarding `C[C@@H](O)CN1CCCC1c1cc(-c2ccncc2)c(-c2ccc(F)cc2)[nH]1` (some centres undefined), the Activity in experiment [1] and in experiment [3] was under 50% each time. In experiment [2], this compound had a pIC50 of 8.48.

Turning to `CN(C)Cc1cc(-c2ccncc2)c(-c2ccc(F)cc2)[nH]1`, the Activity in experiment [1] was under 50%. The pIC50 in experiment [2] was 9.46.

Turning to `C[C@H](O)CN1CCCC1c1cc(-c2ccncc2)c(-c2ccc(F)cc2)[nH]1` (some centres undefined), the Activity is listed as under 50% in experiment [1] and 80% in experiment [3]. Also, the pIC50 in experiment [2] was 8.55.

Consider `Fc1ccc(-c2[nH]c(CN3CCC3)cc2-c2ccncc2)cc1`, for which the Activity in experiment [1] and in experiment [3] was under 50% each time. In experiment [2], the pIC50 is 8.89.

For `CN1CCCC1c1cc(-c2ccncc2)c(-c2ccc(F)cc2)[nH]1` (centres undefined), the Activity in experiment [1] is recorded as 80%; in experiment [3] it was under 50%. This compound also had a pIC50 in experiment [2] of 9.00.

Regarding `CN(C)CCc1cc(-c2ccncc2)c(-c2ccc(F)cc2)[nH]1`, the Activity in experiment [1] and in experiment [3] was 50% throughout. The same compound had a pIC50 in experiment [2] of 8.60.

Take `Fc1ccc(-c2[nH]c(CN3CCCCC3)cc2-c2ccncc2)cc1`: the Activity in experiment [1] and in experiment [3] was under 50% throughout. The pIC50 in experiment [2] was 8.43.

With `Fc1ccc(-c2[nH]c(C3CCCN3)cc2-c2ccncc2)cc1` (centres undefined), the Activity in experiment [1] was under 50%; in experiment [3], 50%. Moreover, the pIC50 in experiment [2] is 8.51.

For the compound `CC(C)C(c1cc(-c2ccncc2)c(-c2ccc(F)cc2)[nH]1)N(C)C` (centres undefined), the Activity is 80% in experiment [1] and 50% in experiment [3]. Also, the pIC50 in experiment [2] is 9.15.

As for `Fc1ccc(-c2[nH]c(CN3CCOCC3)cc2-c2ccncc2)cc1`, the Activity in experiment [1] and in experiment [3] was under 50% each time. The compound further had a pIC50 in experiment [2] of 8.12.

Consider `O=S(=O)(c1ccc(F)cc1)N1CCCC1c1cc(-c2ccncc2)c(-c2ccc(F)cc2)[nH]1` (centres undefined), for which the Activity in experiment [1] and in experiment [3] was under 50% each time. Further, the pIC50 in experiment [2] is 8.82.

In the case of `O=C(OCc1ccccc1)N1CCCC1c1cc(-c2ccncc2)c(-c2ccc(F)cc2)[nH]1` (centres undefined), the Activity in experiment [1] and in experiment [3] was under 50% each time. In experiment [2], this compound gave a pIC50 of 8.57.

Regarding `CCN(C)CCCc1cc(-c2ccncc2)c(-c2ccc(F)cc2)[nH]1`, the Activity in experiment [1] and in experiment [3] was under 50% each time. In addition, in experiment [2], the pIC50 was 8.39.
